# Data from patent US5192807A, “Siderophores as antiparasitic agents” (priority 1987, dated 1993).
# “Also recorded” adds a separate entry of the source.
# Columns and labels:
# [1] = cited from earlier work
# Plasmodium falciparum [2] = assay: Inhibition of Plasmodium falciparum growth (35S-methionine incorporation) and effect of adding iron; type: cell-based; conditions: for antiplasmodial activity / parasite growth inhibition: in vitro, no iron added; for effect of FeCl3 on inhibition: 2.10^-3 M FeCl3 added immediately after the hydroxamate; for effect of adding iron on the antiplasmodial action: iron added to the parasite culture
# Procedure: FIG. 3b: the pool of hydroxamate (10 ml to 15 ml) collected by the ion exchange chromatography was placed in a Sephadex G50 column (25×2 cm) and eluted with 100 mM of phosphate buffer (pH 7.0), at a flow rate of 30 ml/h. Fractions (2 ml to 3 ml) were collected and the hydroxamate measured (A526 nm absorbance -- --), and the following were also measured: inhibition of Plasmodium falciparum growth (--.smallcircle.--) and A220 nm absorbance (--Δ--).
# 0.2 μm of the filtered fractions were placed in a synchronized culture of Plasmodium falciparum at a final concentration of 2.5%, as described in Table I. 100 μCi/ml of methionine marked with sulfur 35 (Amersham) were added on day 1 (rings). The parasite culture was collected on day 2 (schizonts) and the incorporation of ^35 S-methionine was measured in 10% TCA.
# normal red blood cells = assay: Concentration in healthy red blood cells; type: cell-based, human; conditions: tritium-marked, 7 μg/ml, 37° C.
# Procedure: (§1) This test studies the incorporation of […] in normal red blood cells and in red blood cells infected with Plasmodium falciparum.
# (§2) Tritium-marked aerobactin (0.2 mCi/mmol to 0.3 mCi/mmol) was purified as described above (FIG. 3) from a supernatant of strains of K5 1101 Klebsiella pneumoniae culture cultivated in an RPMI* medium containing 100 μCi/ml of tritium-marked lysine.
# (§3) The tritium-containing aerobactin (7 μg/ml) and the ^125 I containing desferioxamine (50 μg/ml) were introduced into synchronized cultures of Plasmodium falciparum (schizont stage, 20% parasitemia, hematocrit: 5%) and in a suspension of red blood cells (5% hematocrit). The cultures were incubated at 37° C. and 50 μl samples were taken at different times.
# (§4) For each sample, the following were measured:
# (§5) 1. The cpm in the culture supernatant;
# 2. The cpm in the supernatant of red blood cells lysis (the red blood cells were lysed in 40 vol. of RPMI diluted ten times and the free parasites were precipitated using a centrifuge rotating at 5,000 rpm for 5 min and were washed in RPMI); and […]
# L fibroblasts = assay: 35S-methionine incorporation in L fibroblasts; type: cell-based; conditions: 5 hours
# [3] = test system: red blood cells infected with Plasmodium falciparum; assay: Penetration and concentration in parasitized red blood cells; type: cell-based, human; conditions: for penetration into parasitized red blood cells: schizont stage, aerobactin 7 μg/ml, desferioxamine 50 μg/ml
# Description: as §1, §2
# Desferioxamine marked with iodine 125 (50 mCi/mmol) was obtained by the iodine-producing technique.
# as §3, §4, §5
# 2. The cpm in the supernatant of red blood cells lysis (the red blood cells were lysed in 40 vol. of RPMI diluted ten times and the free parasites were precipitated using a centrifuge rotating at 5,000 rpm for 5 min and were washed in RPMI); and
# 3. The cpm associated with free parasites.
# The parasites are subsequently lysed in order to prepare soluble and membrane fractions as described previously (Braun-Breton et al, Molecular Biochem. Parasitol., 1986, 20, pp. 33-43).
# monkeys = conditions: monkey, in vivo
# [4] = test system: schizonts of Plasmodium falciparum; assay: Kinetics of inhibition of 35S-methionine incorporation in schizonts; type: cell-based; conditions: for incorporation of 35S-methionine in the proteins of schizonts: FIG. 7, aerobactin 50 μg/ml, desferioxamine 500 μg/ml
# Procedure: Time in minutes is plotted along the X axis and the percentage of inhibited schizonts is plotted up the Y axis.
# The schizonts of Plasmodium falciparum were concentrated from a culture, they were washed and cultured at 37° C. for one hour. Solutions of hydroxamate (-- -- 50 μg/ml aerobactin and --.smallcircle.-- 500 μg/ml of desferioxamine) were added to the schizonts. Incubation at 37° C. continued and samples were taken at various different times. The hydroxamate was removed by washing the cells, and the cells were again cultured in the presence of 250 μCi/ml ^35 S-methionine for one hour.
# The cultures were collected and the degree to which ^35 S-methionine had been incorporated was measured.
# bacteria = conditions: Williams et al 1986; cited from earlier work
# Plasmodium chaubaudi = assay: Parasite multiplication and survival of mice infected with Plasmodium chaubaudi; type: in vivo
# [5] = Williams et al 1986; cited from earlier work
# mice = assay: Toxicity in mice; type: in vivo; conditions: injection
# Plasmodium falciparum [6] = assay: Quantitative in vitro growth inhibition of Plasmodium falciparum; type: cell-based; conditions: 2.5 μg/ml (about 10^-5 M)
# fibroblasts = assay: Toxicity on a culture of fibroblasts; type: cell-based; conditions: purified
# P. falciparum = assay: Parasite multiplication and survival of mice infected with P. falciparum; type: in vivo; conditions: FIG. 5
compound,measurement,setting,value
CCN(CC)CCCC(C)Nc1ccnc2cc(Cl)ccc12 (stereo not drawn) [chloroquine],toxicity (prior art),[1],do not present significant toxicity
Cl.NCCCC[C@H](N)C(=O)NO [L-Lysine hydroxamate hydrochloride],antiplasmodial activity / parasite growth inhibition,Plasmodium falciparum [2],does not exhibit antiplasmodial activity
CC(=O)N(O)CCCCC(NC(=O)CC(O)(CC(=O)NC(CCCCN(O)C(C)=O)C(=O)O)C(=O)O)C(=O)O (stereo not drawn) [aerobactin],concentration in healthy red blood cells,normal red blood cells,not concentrated in healthy red blood cells
same,inhibition of methionine incorporation in L fibroblasts,L fibroblasts,Such activity was not found
same,location of intraparasitic radioactivity,"[3]; lysed parasites, soluble and membrane fractions",recovered in the soluble fraction of the parasites
same,penetration into parasitized red blood cells,[3]; 37° C.,penetrates quickly into parasitized red blood cells
same,detection in the cytoplasm of the red blood cells,[3]; supernatant of red blood cell lysis,not detected
same,concentration in the parasitized cell,"[3]; tritium-marked, 7 μg/ml, 37° C.",at least 200 times
same,toxic effect in monkeys,monkeys,no toxic effect has been observed
same,effect of FeCl3 on inhibition,Plasmodium falciparum [2],little effect on inhibition
same,plasmocidin activity after purification,"Plasmodium falciparum [2]; Dowex-1 and Sephadex G50 purified, FIG. 3",plasmocidin activity subsists
same,effect of adding iron on the antiplasmodial action,Plasmodium falciparum [2],does not reverse the plasmocidin action
same,incorporation of 35S-methionine in the proteins of schizonts,[4],quickly suppresses the incorporation
same,inhibition at 50 µg/mL,"[4]; Plasmodium falciparum, 2 h, 50 μg/ml, within two hours, 37° C., read-out: schizonts with inhibited incorporation of methionine",90%
same,concentration stimulating bacterial growth relative to enterochelin,bacteria,500 times smaller
same,survival of mice,Plasmodium chaubaudi; 7.5 μg,do not survive
same,parasite multiplication and survival of mice,"Plasmodium chaubaudi; purified, intravenous, 15 μg/mouse","causes parasite multiplication to be slowed down, allowing the mice to survive"
same,affinity for ferric derivatives relative to enterochelin,[5],lower affinity for ferric derivatives than enterochelin
same,toxicity for mice,mice,not toxic for mice; also recorded: no toxic effect has been observed
same,inhibition of growth of Plasmodium falciparum,Plasmodium falciparum [6],100%
same,toxic effect on fibroblasts in culture,fibroblasts,no toxic effect on the cells
same,parasite multiplication and survival of mice (P. falciparum),P. falciparum,The same effect has been observed
CC(=O)N(O)CCCCCNC(=O)CCC(=O)N(O)CCCCCNC(=O)CCC(=O)N(O)CCCCCN [Desferioxamine],penetration into parasitized red blood cells,[3]; 37° C.,does not penetrate into parasitized red blood cells
same,effect of FeCl3 on inhibition,Plasmodium falciparum [2],completely reverses the inhibition
same,antiplasmodial activity / parasite growth inhibition,Plasmodium falciparum [2],inhibits parasite growth
same,effect of adding iron on the antiplasmodial action,Plasmodium falciparum [2],totally reversed
same,incorporation of 35S-methionine in the proteins of schizonts,[4],no action on the incorporation of methionine
